Measurements as given in patent US20100010046A1, “PHARMACEUTICAL FORMULATION FOR PARENTERAL ADMINISTRATION” (IRONWOOD PHARMACEUTICALS, INC., priority 2006, published 2010).

Experiments:
[1] = test system: indomethacin-induced rat gastric ulcers; settings: subcutaneous, 50 μg/kg; cited from earlier work
[2] = room temperature; presence of water (U.S. Pat. No. 5,324,746); cited from earlier work
[3] = test system: isolated canine parietal cell preparation; assay: Inhibition of histamine-stimulated acid secretion in an isolated canine parietal cell preparation; format: cell-based; settings: Canis lupus familiaris, read-out: IC50 (nM), concentration required to inhibit 50% of maximal histamine-stimulated acid secretion
Text: Concentrations required to inhibit 50% of maximal histamine-stimulated acid secretion in an isolated canine parietal cell preparation is shown in Table 1 below.

In the case of CCCCC(C)(O)C/C=C/[C@H]1C(O)CC(=O)[C@@H]1CCCCCCC(=O)OC (stereo partly drawn) [Misoprostol], the reduced lesion formulation [1] is given as “up to 60%”, the chemical stability [2] is given as “chemically unstable at room temperature and breaks down in the presence of water” and the IC50 [3] is given as 3.8 nM.
